Where a name gives a salt, the structure may show the parent alone.

From patent US9422285B2, “Substituted pyrazolo[1,5-A]-pyridine-3-carboxamides and use thereof” (Bayer Pharma Aktiengesellschaft, priority 2014, dated 2016) come the findings set out here.

This assay concerns the target T1, recombinant guanylate cyclase reporter cell line (Rattus norvegicus, UniProt P19686+P20595).
T1 construct: expressed in transfected cells
T1 sequence (P19686 1-690): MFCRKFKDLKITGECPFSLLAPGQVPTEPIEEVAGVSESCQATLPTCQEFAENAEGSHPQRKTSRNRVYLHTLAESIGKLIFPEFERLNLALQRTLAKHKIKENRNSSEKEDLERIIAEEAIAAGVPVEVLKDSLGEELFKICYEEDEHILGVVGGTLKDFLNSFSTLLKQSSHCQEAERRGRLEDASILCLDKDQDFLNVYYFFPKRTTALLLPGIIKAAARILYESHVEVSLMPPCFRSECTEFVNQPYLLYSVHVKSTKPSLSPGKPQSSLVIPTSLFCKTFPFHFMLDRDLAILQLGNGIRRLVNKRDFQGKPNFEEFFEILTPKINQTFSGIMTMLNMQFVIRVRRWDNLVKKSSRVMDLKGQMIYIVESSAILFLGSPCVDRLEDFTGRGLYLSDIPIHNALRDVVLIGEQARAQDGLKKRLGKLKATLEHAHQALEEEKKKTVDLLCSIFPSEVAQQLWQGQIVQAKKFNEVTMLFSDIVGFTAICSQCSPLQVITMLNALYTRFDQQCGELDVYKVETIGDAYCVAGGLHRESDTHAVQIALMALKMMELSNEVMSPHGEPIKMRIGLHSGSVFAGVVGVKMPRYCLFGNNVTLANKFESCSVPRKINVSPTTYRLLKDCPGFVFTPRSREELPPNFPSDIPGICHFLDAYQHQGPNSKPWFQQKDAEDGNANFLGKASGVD
T1 sequence (P20595 1-619): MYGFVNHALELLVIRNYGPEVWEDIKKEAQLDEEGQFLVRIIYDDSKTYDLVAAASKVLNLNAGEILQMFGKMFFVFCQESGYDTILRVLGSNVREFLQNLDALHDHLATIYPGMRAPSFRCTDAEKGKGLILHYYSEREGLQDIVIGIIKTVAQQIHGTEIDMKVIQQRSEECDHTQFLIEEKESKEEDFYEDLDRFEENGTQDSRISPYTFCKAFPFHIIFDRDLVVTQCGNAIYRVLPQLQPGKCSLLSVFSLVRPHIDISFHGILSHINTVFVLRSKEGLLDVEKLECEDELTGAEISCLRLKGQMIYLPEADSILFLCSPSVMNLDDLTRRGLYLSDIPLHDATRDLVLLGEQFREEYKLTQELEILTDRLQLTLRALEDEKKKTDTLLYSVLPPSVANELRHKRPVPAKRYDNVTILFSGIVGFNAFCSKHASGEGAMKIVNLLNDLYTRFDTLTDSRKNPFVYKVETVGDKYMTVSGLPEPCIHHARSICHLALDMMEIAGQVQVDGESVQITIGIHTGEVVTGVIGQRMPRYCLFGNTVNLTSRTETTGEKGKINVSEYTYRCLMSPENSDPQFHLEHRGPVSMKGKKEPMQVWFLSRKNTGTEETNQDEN
Description: Effect on a recombinant guanylate cyclase reporter cell line (B-2). Type of assay: cell-based. To be noted: in some cases mean values for individual determinations. The protocol: B-2. Effect on a Recombinant Guanylate Cyclase Reporter Cell Line
The cellular effect of the inventive compounds is determined using a recombinant guanylate cyclase reporter cell line, as described in F. Wunder et al., Anal. Biochem. 339, 104-112 (2005).
Representative MEC values (MEC=minimum effective concentration) for the inventive compounds are shown in the table below (in some cases as mean values for individual determinations): […]

For `Cc1cc(OCc2c(F)ccc(F)c2F)n2nc(C)c(C(=O)NC(C)COCC(F)(F)F)c2c1` (racemic) [Example 24, rac-2,5-Dimethyl-7-[(2,3,6-trifluorobenzyl)oxy]-N-[1-(2,2,2-trifluoroethoxy)propan-2-yl]pyrazolo[1,5-a]pyridine-3-carboxamide], the “MEC (minimum effective concentration)” value turned out to be 0.3 µM.
In the case of `Cc1cc(OCc2c(F)cccc2F)n2nc(C)c(C(=O)NCC(N)c3cccc(OCCO)c3)c2c1` (racemic) [Example 72, rac-N-{2-Amino-2-[3-(2-hydroxyethoxy)phenyl]ethyl]-7-[(2,6-difluorobenzyl)oxy]-2,5-dimethylpyrazolo[1,5-a]pyridine-3-carboxamide trifluoroacetate], the “MEC (minimum effective concentration)” value came to 10 µM.
The result for `COC(=O)[C@H]1CC[C@H](CNC(=O)c2c(C)nn3c(OCc4c(F)cccc4F)cc(C)cc23)CC1` [Example 35, Methyl trans-4-{[({7-[(2,6-difluorobenzyl)oxy]-2,5-dimethylpyrazolo[1,5-a]pyridin-3-yl}carbonyl)amino]methyl}cyclohexanecarboxylate] reads 1.0 µM.
The result for `CCCC(C)(N)CNC(=O)c1c(C)nn2c(OCc3ncccc3F)cc(C)cc12` (racemic) [Example 166, rac-N-(2-Amino-2-methylpentyl)-7-[(3-fluoropyridin-2-yl)methoxy]-2,5-dimethylpyrazolo[1,5-a]pyridine-3-carboxamide] reads 10 µM.
The result for `Cc1cc(OCc2c(F)cccc2F)n2nc(C)c(C(=O)NC3CCN(C)c4ccccc43)c2c1` (racemic) [Example 75, rac-7-[(2,6-Difluorobenzyl)oxy]-2,5-dimethyl-N-(1-methyl-1,2,3,4-tetrahydroquinolin-4-yl)pyrazolo a]pyridine-3-carboxamide trifluoroacetate] reads 0.03 µM.
Take `Cc1cc(OCc2c(F)cccc2F)n2nc(C)c(C(=O)NCC(C)(N)CCOCc3ccccc3)c2c1` (racemic) [Example 78, rac-N-[2-Amino-4-(benzyloxy)-2-methylbutyl]-7-[(2,6-difluorobenzyl)oxy]-2,5-dimethylpyrazolo[1,5-a]pyridine-3-carboxamide]: the “MEC (minimum effective concentration)” value was determined as 1.0 µM.
The same measure for `Cc1cc(OCc2c(F)cccc2F)n2nc(C)c(C(=O)NCC(C)(N)C(F)(F)F)c2c1` (racemic) [Example 109, rac-N-(2-Amino-3,3,3-trifluoro-2-methylpropyl)-7-[(2,6-difluorobenzyl)oxy]-2,5-dimethylpyrazolo[1,5-a]pyridine-3-carboxamide]: 1.0 µM; for `Cc1cc(OCc2c(F)cccc2F)n2nc(C)c(C(=O)NOCCO)c2c1` [Example 64, 7-[(2,6-Difluorobenzyl)oxy]-N-(2-hydroxyethoxy)-2,5-dimethylpyrazolo[1,5-a]pyridine-3-carboxamide trifluoroacetate]: 3.0 µM.
Turning to `CCCC(C)(N)CNC(=O)c1c(C)nn2c(OCc3c(F)ccc(OC)c3F)cc(C)cc12` (racemic) [Example 161, rac-N-(2-Amino-2-methylpentyl)-7-[(2,6-difluoro-3-methoxybenzyl)oxy]-2,5-dimethylpyrazolo[1,5-a]pyridine-3-carboxamide], the “MEC (minimum effective concentration)” value worked out at 3.0 µM.
The same measure for `Cc1cc(OCc2c(F)cccc2F)n2nc(C)c(C(=O)NCC(N)c3cccc(OC(F)F)c3)c2c1` (racemic) [Example 116, rac-N-{2-Amino-2-[3-(difluoromethoxy)phenyl]ethyl}-7-[(2,6-difluorobenzyl)oxy]-2,5-dimethylpyrazolo[1,5-a]pyridine-3-carboxamide]: 3.0 µM.
The same measure for `Cc1cc(OCc2c(F)cccc2F)n2nc(C)c(C(=O)NCC(C)(N)CC(C)C)c2c1` (racemic) [Example 92, rac-N-(2-Amino-2,4-dimethylpentyl)-7-[(2,6-difluorobenzyl)oxy]-2,5-dimethylpyrazolo[1,5-a]pyridine-3-carboxamide]: 0.3 µM; for `Cc1cc(OCc2c(F)cccc2F)n2nc(C)c(C(=O)NC[C@H]3CC[C@H](C(=O)O)CC3)c2c1` [Example 36, trans-4-{[({7-[(2,6-Difluorobenzyl)oxy]-2,5-dimethylpyrazolo[1,5-a]pyridin-3-yl}carbonyl)amino]methyl}cyclohexanecarboxylic Acid]: 3.0 µM.
The result for `Cc1cc(OCc2c(F)cccc2F)n2nc(C)c(C(=O)NCC(N)c3ccc(C)o3)c2c1` (racemic) [Example 104, rac-N-[2-Amino-2-(5-methyl-2-furyl)ethyl]-7-[(2,6-difluorobenzyl)oxy]-2,5-dimethylpyrazolo[1,5-a]pyridine-3-carboxamide] reads 3.0 µM; that for `COC(=O)c1cccc(C(N)CNC(=O)c2c(C)nn3c(OCc4c(F)cccc4F)cc(C)cc23)c1` (racemic) [Example 114, rac-Methyl 3-{1-amino-2-[({7-[(2,6-difluorobenzyl)oxy]-2,5-dimethylpyrazolo[1,5-a]pyridin-3-yl}carbonyl)amino]ethyl}benzoate], 10 µM; that for `Cc1cc(OCc2c(F)cccc2F)n2nc(C)c(C(=O)N[C@@H](CO)c3nnc([C@@H](N)C(C)C)o3)c2c1` [Example 179, N-[(1S)-1-{5-[(1S)-1-Amino-2-methylpropyl]-1,3,4-oxadiazol-2-yl}-2-hydroxyethyl]-7-[(2,6-difluorobenzyl)oxy]-2,5-dimethylpyrazolo[1,5-a]pyridine-3-carboxamide], 10 µM.
Consider `Cc1cc(OCc2c(F)cccc2F)n2nc(C)c(C(=O)NCC3(N)CCCCC3)c2c1` [Example 124, N-[(1-Aminocyclohexyl)methyl]-7-[(2,6-difluorobenzyl)oxy]-2,5-dimethylpyrazolo[1,5-a]pyridine-3-carboxamide], for which the “MEC (minimum effective concentration)” value was found to be 0.3 µM.
The result for `Cc1cc(OCc2c(F)cccc2F)n2nc(C)c(C(=O)NCC3(N)COC3)c2c1` [Example 60, N-[(3-Aminooxetan-3-yl)methyl]-7-[(2,6-difluorobenzyl)oxy]-2,5-dimethylpyrazolo[1,5-a]pyridine-3-carboxamide] reads 3.0 µM; that for `Cc1cc(OCc2c(F)ccc(F)c2F)n2nc(C)c(C(=O)Nc3c(C)nn(CCO)c3C)c2c1` [Example 11, N-[1-(2-Hydroxyethyl)-3,5-dimethyl-1H-pyrazol-4-yl]-2,5-dimethyl-7-[(2,3,6-trifluorobenzyl)oxy]pyrazolo[1,5-a]pyridine-3-carboxamide], 1.0 µM.
The same measure for `Cc1cc(OCc2c(F)cccc2F)n2nc(C)c(C(=O)NC3CC(=O)N(C)c4ccccc43)c2c1` (racemic) [Example 77, rac-7-[(2,6-Difluorobenzyl)oxy]-2,5-dimethyl-N-(1-methyl-2-oxo-1,2,3,4-tetrahydroquinolin-4-yl)pyrazolo[1,5-a]pyridine-3-carboxamide trifluoroacetate]: 0.3 µM; for `CCC(CO)(CO)NC(=O)c1c(C)nn2c(OCc3c(F)ccc(F)c3F)cc(C)cc12` [Example 28, N-[1-Hydroxy-2-(hydroxymethyl)butan-2-yl]-2,5-dimethyl-7-[(2,3,6-trifluorobenzyl)oxy]pyrazolo[1,5-a]pyridine-3-carboxamide]: 1.0 µM.
The result for `CCC(N)(CC)CNC(=O)c1c(C)nn2c(OCc3c(F)ccc(F)c3F)cc(C)cc12` [Example 8, N-(2-Amino-2-ethylbutyl)-2,5-dimethyl-7-[(2,3,6-trifluorobenzyl)oxy]pyrazolo[1,5-a]pyridine-3-carboxamide] reads 0.3 µM; that for `Cc1cc(OCc2c(F)cccc2F)n2nc(C)c(C(=O)NC3COc4ccccc43)c2c1` (racemic) [Example 108, rac-7-[(2,6-Difluorobenzyl)oxy]-N-(2,3-dihydro-1-benzofur-3-yl)-2,5-dimethylpyrazolo[1,5-a]pyridine-3-carboxamide], 0.3 µM.
